In ChEMBL document CHEMBL1132891, “Carbacyclic peptide mimetics as VCAM-VLA-4 antagonists” (Bioorg Med Chem Lett, 2000) one finds IC50 data, which are given here for seven compounds.

The structures appear in SMILES notation.

For this experiment, the target named is T1, Integrin alpha-4 (Homo sapiens, UniProt P13612).
T1 sequence (P13612 whole entry): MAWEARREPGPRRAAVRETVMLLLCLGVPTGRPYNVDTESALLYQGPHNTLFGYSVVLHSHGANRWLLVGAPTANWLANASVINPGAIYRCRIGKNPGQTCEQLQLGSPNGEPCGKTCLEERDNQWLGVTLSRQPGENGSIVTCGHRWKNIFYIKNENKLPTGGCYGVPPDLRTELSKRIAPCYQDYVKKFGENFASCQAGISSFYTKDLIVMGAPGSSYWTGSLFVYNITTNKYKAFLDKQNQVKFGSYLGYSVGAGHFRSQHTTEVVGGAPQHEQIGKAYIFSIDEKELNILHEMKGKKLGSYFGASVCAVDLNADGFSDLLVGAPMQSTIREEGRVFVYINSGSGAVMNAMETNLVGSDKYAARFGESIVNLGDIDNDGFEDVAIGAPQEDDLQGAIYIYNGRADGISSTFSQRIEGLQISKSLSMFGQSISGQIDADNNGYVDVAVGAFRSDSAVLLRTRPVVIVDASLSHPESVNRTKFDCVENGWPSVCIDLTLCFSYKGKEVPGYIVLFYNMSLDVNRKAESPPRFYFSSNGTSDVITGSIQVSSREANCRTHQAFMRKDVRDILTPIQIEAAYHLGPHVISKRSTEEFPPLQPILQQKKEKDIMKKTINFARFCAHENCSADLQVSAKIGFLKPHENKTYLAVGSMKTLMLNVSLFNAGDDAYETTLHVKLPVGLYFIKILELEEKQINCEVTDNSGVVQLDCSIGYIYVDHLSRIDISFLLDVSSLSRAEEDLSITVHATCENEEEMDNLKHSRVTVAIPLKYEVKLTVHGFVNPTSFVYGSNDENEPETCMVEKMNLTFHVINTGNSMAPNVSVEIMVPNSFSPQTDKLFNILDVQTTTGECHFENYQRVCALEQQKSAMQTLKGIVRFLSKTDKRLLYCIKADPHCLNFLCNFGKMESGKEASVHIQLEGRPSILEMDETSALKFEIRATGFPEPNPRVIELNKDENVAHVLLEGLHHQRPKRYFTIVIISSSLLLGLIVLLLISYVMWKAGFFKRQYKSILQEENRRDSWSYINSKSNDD
The experiment is described as follows: Inhibitory concentration against VLA-4 receptor using human VCAM-VLA-4 binding assay.

As to `N[C@@H](Cc1ccc(O)cc1)C(=O)N/C1=C/CCCC[C@@H](C(=O)O)NC(=O)C2(CCCC2)CCNC1=O`, the IC50 turned out to be 330 nM.

With `N[C@@H](Cc1ccc(O)cc1)C(=O)N[C@H]1CSSC[C@@H](C(=O)O)NC(=O)C2(CCCC2)CCNC1=O`, the IC50 is 0.5 nM.

Consider `N[C@@H](Cc1ccc(O)cc1)C(=O)N/C1=C/CCC[C@@H](C(=O)O)NC(=O)C2(CCCC2)CCNC1=O`, for which the IC50 was found to be 160 nM.

As to `N[C@@H](Cc1ccc(O)cc1)C(=O)NC1CCCC[C@@H](C(=O)O)NC(=O)C2(CCCC2)CCNC1=O` (stereo in doubt; 14a), the half-maximal inhibitory concentration (IC50) worked out at 44 nM. Compared with the last compound, the IC50 is about 3.6-fold lower.

Turning to `N[C@@H](Cc1ccc(O)cc1)C(=O)NC1CCCCC[C@@H](C(=O)O)NC(=O)C2(CCCC2)CCNC1=O` (stereo in doubt; 14b), the IC50 came to 550 nM.

With `N[C@@H](Cc1ccc(O)cc1)C(=O)NC1CCCC[C@@H](C(=O)O)NC(=O)C2(CCCC2)CCNC1=O` (stereo in doubt; 15a), the IC50 was found to be 89 nM.

`N[C@@H](Cc1ccc(O)cc1)C(=O)NC1CCCCC[C@@H](C(=O)O)NC(=O)C2(CCCC2)CCNC1=O` (stereo in doubt; 15b) had an IC50 of 750 nM.
